Experiment in all cases: NCI anticancer screen, dose series, 48 h
Assay [1] concerns HOP-62 NSCLC.
The subject of assay [2] is OVCAR-3 ovarian.
Assay [3] relates to TK-10 renal.
The test system of assay [4] is SN12C renal.
Assay [5] concerns SW-620 colon.
For assay [6], the system named is CCRF-CEM leukemia.
The test system of assay [7] is SR leukemia.
Assay [8] has as its system SF-539 CNS.
The subject of assay [9] is MDA-MB-435.
For assay [10], the system named is MCF7 breast.
Assay [11] relates to OVCAR-5 ovarian.
The test system of assay [12] is SNB-19 CNS.
Assay [13] concerns K-562 leukemia.
Assay [14] concerns MDA-N.
The subject of assay [15] is PC-3 prostate.
The test system of assay [16] is CAKI-1 renal.
In assay [17] the test system is U251 CNS.
For assay [18], the system named is HT29 colon.
In assay [19] the test system is EKVX NSCLC.

Each structure is given as a SMILES string.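 A five-concentration, 48-hour dose response in 96-well plates underlies each endpoint, interpolated linearly between surrounding concentrations. TGI denotes the concentration required for complete inhibition of growth.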

The text below walks through data of PubChem BioAssay (NCI).

`Nc1ccccc1CCCC(=O)O`: the TGI in [1], in assay [2], in assay [3], in assay [4], in assay [5] and in assay [6] was greater than 100 µM each time. In addition, the TGI in [7], in [8], in [9], in assay [10], in assay [11] and in assay [12] was greater than 100 µM in each case. For the same molecule, the TGI in [13], in assay [14], in assay [15], in assay [16], in [17] and in assay [18] was greater than 100 µM in each case.
Consider `O=C1C=CC2(O[C@H](c3ccccc3)[C@@H](c3ccccc3)O2)C(SC(=O)c2ccccc2)C1` (stereo partly specified), for which the TGI in assay [1] is 3.31 µM; in assay [2], 4.41 µM; in assay [3], 6.64 µM; in [4], 6.42 µM; in assay [5], 0.811 µM; in assay [7] it was greater than 100 µM. The TGI in assay [8] was 3.29 µM; in assay [9], 4.8 µM; in [10], 2.83 µM; in [11] it was 3.27 µM; in [12], 5.63 µM; in assay [13] it was greater than 100 µM. In addition, the TGI in assay [14] was determined as 3.32 µM; in assay [15] it was 4.58 µM; in assay [16], 6.53 µM; in assay [17] it was 2.9 µM; in assay [18] it was 3.89 µM.
Regarding `O=C(O)CN1CCNCCN(CP(=O)(O)O)CC1`, the TGI in assay [1], in assay [2], in assay [3], in assay [4], in assay [5] and in [6] was greater than 100 µM in each case. In addition, the TGI in assay [7], in assay [8], in assay [19], in assay [9], in assay [10] and in assay [11] was greater than 100 µM each time. Besides, the TGI in assay [12], in assay [13], in assay [14], in assay [15], in assay [16] and in assay [17] was greater than 100 µM in each case.
Consider `Cc1ccc(S(=O)(=O)N2CC3OC(C)(C)OC3C2CO)cc1` (stereo unspecified), for which the TGI in assay [1], in [2], in assay [3], in [4], in assay [5] and in assay [6] was greater than 100 µM in each case. The TGI in [7], in assay [8], in assay [9], in assay [10], in assay [11] and in [13] was greater than 100 µM throughout. Besides, the TGI in [14], in assay [15], in [16], in assay [17] and in assay [18] was greater than 100 µM each time.
As for `CCOC(=O)c1cc2c(ccc3cc(C(=O)OCC)[nH]c32)[nH]1`, the TGI was 59 µM in assay [1]; greater than 100 µM in [2]; greater than 100 µM in [3]; 89.1 µM in [4]; greater than 100 µM in assay [5]; greater than 100 µM in assay [6]. The TGI in assay [7] is 45.3 µM; in assay [8], 29.6 µM; in [19] it was greater than 100 µM; in assay [9] it was greater than 100 µM; in assay [10], greater than 100 µM; in [11], greater than 100 µM. Further, the TGI in assay [12] was 74.6 µM; in [13], greater than 100 µM; in assay [14], greater than 100 µM; in assay [15], greater than 100 µM; in assay [16], greater than 100 µM; in assay [17], 19.1 µM.
`Cc1cc(C)nc(NS(=O)(=O)c2ccc(Nc3nncc(=O)n3N)cc2)n1`: the TGI in assay [1] was 34.7 µM; in assay [2], 29.8 µM; in assay [5] it was 44.2 µM; in [6] it was 11.6 µM; in assay [7] it was 42.4 µM; in assay [8], greater than 100 µM. The TGI was 62.7 µM in [19]; 33 µM in assay [9]; 30.3 µM in assay [10]; 37.2 µM in [11]; 83 µM in assay [12]; 43.9 µM in assay [13]. Also, the TGI is 30 µM in [14]; 54.9 µM in [15]; 29.5 µM in assay [16]; 31.5 µM in assay [17]; 32.2 µM in [18].
Regarding `Cc1ccc2c(c1)C(=O)/C(=C\c1ccccc1)CCS2(=O)=O`, the TGI in assay [1] was greater than 86 µM; in [2], 39.9 µM; in assay [3], 30.7 µM; in [4], 53.3 µM; in assay [5] it was 73.5 µM; in [7] it was greater than 24.7 µM. The TGI was 29.9 µM in assay [8]; greater than 100 µM in assay [19]; greater than 61.4 µM in assay [9]; 18.9 µM in assay [10]; greater than 55.7 µM in assay [11]; 28.2 µM in [12]. Further, the TGI was 5.52 µM in assay [13]; greater than 52.4 µM in [14]; greater than 71.1 µM in assay [15]; 49.9 µM in assay [16]; 31 µM in [17]; 24.1 µM in [18].
On to `CCOP(C)(=O)C(Cc1c[nH]c2ccccc12)C(=O)O` (stereo unspecified), for which the TGI in [1], in assay [2], in [4], in assay [5], in assay [6] and in assay [7] was greater than 100 µM each time. Besides, the TGI in assay [8], in assay [19], in assay [9], in assay [10], in assay [11] and in assay [12] was greater than 100 µM each time. In addition, the TGI in assay [13], in assay [14], in assay [15], in assay [16], in [17] and in assay [18] was greater than 100 µM each time.
